Data reported in patent US20110250135A1, “Piperazine Derivatives for Binding and Imaging Amyloid Plaques and Their Use” (Bayer Schering Pharma Aktiengesellschaft, priority 2008, published 2011).

Key:
Aβ plaques = biological target: T1, Aβ plaques (Homo sapiens, UniProt P05067); assay: Autoradiographical analysis of binding to cryosections from cortex of AD patients and controls; settings: F-18 labeled compound; Alzheimer's disease patients (AD) vs controls without Aβ plaques
T1 construct: controls without Aβ plaques; from tissue; host or cells: frontal lobe / cortex sections (frozen and paraffin) from AD patients, FTD patients and age-matched controls
Outline: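 Frozen (18 μm) and deparaffinized paraffin (6 μm) frontal-lobe sections from Alzheimer's, frontotemporal dementia and age-matched control brains were incubated 1.5 h at room temperature with F-18 test compound at 10 Bq/μl in 25 mM Hepes pH 7.4, 0.1% BSA. Blocking used 1000-fold excess unlabeled compound; phosphoimager readout.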

[1] = Biodistribution: organ distribution of F-18 signal in mice; format: in vivo, male NMRI mice; settings: for Organ distribution of F-18 signal, intestine: intestine (with content); for Organ distribution of F-18 signal, stomach: stomach (without content)
Outline: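 Male NMRI mice (~30 g, 3 per time point) received ca. 150 kBq of the test compound i.v. via tail vein. At 2, 5, 30, 60 and 240 min, urine and feces were collected and organs and tissues taken for gamma counting. Values are decay-corrected % ID/g ± SD.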

T1 sequence (P05067 672-713 limits assumed): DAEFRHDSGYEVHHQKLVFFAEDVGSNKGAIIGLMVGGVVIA

O=C(NCC(=O)N1CCN(c2ccc(OCc3ccccc3)cc2)CC1)c1ccnc([18F])c1 [Example 11c, N-{2-[4-(4-Benzyloxy-phenyl)-piperazin-1-yl]-2-oxoethyl}-2-[F-18]-fluoro-isonicotinamide]
autoradiographical analysis of binding to cryosections from cortex (Aβ plaques): Specific binding in plaque-rich regions of AD samples | Organ distribution of F-18 signal, adrenals ([1]; 2 min post i.v. injection): 9.24 % ID/g | Organ distribution of F-18 signal, adrenals ([1]; 5 min post i.v. injection): 5.60 % ID/g | Organ distribution of F-18 signal, adrenals ([1]; 30 min post i.v. injection): 2.41 % ID/g | Organ distribution of F-18 signal, adrenals ([1]; 60 min post i.v. injection): 2.45 % ID/g | Organ distribution of F-18 signal, adrenals ([1]; 240 min post i.v. injection): 0.30 % ID/g | Organ distribution of F-18 signal, blood ([1]; 2 min post i.v. injection): 1.70 % ID/g | Organ distribution of F-18 signal, blood ([1]; 5 min post i.v. injection): 1.78 % ID/g | Organ distribution of F-18 signal, blood ([1]; 30 min post i.v. injection): 1.13 % ID/g | Organ distribution of F-18 signal, blood ([1]; 60 min post i.v. injection): 0.49 % ID/g | Organ distribution of F-18 signal, blood ([1]; 240 min post i.v. injection): 0.12 % ID/g | Organ distribution of F-18 signal, brain ([1]; 2 min post i.v. injection): 5.54 % ID/g | Organ distribution of F-18 signal, brain ([1]; 5 min post i.v. injection): 4.73 % ID/g | Organ distribution of F-18 signal, brain ([1]; 30 min post i.v. injection): 1.00 % ID/g | Organ distribution of F-18 signal, brain ([1]; 60 min post i.v. injection): 0.34 % ID/g | Organ distribution of F-18 signal, brain ([1]; 240 min post i.v. injection): 0.05 % ID/g | Organ distribution of F-18 signal, fat ([1]; 2 min post i.v. injection): 1.52 % ID/g | Organ distribution of F-18 signal, fat ([1]; 5 min post i.v. injection): 1.84 % ID/g | Organ distribution of F-18 signal, fat ([1]; 30 min post i.v. injection): 1.94 % ID/g | Organ distribution of F-18 signal, fat ([1]; 60 min post i.v. injection): 0.80 % ID/g | Organ distribution of F-18 signal, fat ([1]; 240 min post i.v. injection): 0.08 % ID/g | Organ distribution of F-18 signal, femur ([1]; 2 min post i.v. injection): 1.53 % ID/g | Organ distribution of F-18 signal, femur ([1]; 5 min post i.v. injection): 1.54 % ID/g | Organ distribution of F-18 signal, femur ([1]; 30 min post i.v. injection): 0.68 % ID/g | Organ distribution of F-18 signal, femur ([1]; 60 min post i.v. injection): 0.38 % ID/g | Organ distribution of F-18 signal, femur ([1]; 240 min post i.v. injection): 0.16 % ID/g | Organ distribution of F-18 signal, heart ([1]; 2 min post i.v. injection): 4.68 % ID/g | Organ distribution of F-18 signal, heart ([1]; 5 min post i.v. injection): 4.36 % ID/g | Organ distribution of F-18 signal, heart ([1]; 30 min post i.v. injection): 1.54 % ID/g | Organ distribution of F-18 signal, heart ([1]; 60 min post i.v. injection): 0.54 % ID/g | Organ distribution of F-18 signal, heart ([1]; 240 min post i.v. injection): 0.13 % ID/g | Organ distribution of F-18 signal, intestine ([1]; 2 min post i.v. injection): 2.14 % ID/g | Organ distribution of F-18 signal, intestine ([1]; 5 min post i.v. injection): 2.66 % ID/g | Organ distribution of F-18 signal, intestine ([1]; 30 min post i.v. injection): 10.01 % ID/g | Organ distribution of F-18 signal, intestine ([1]; 60 min post i.v. injection): 14.79 % ID/g | Organ distribution of F-18 signal, intestine ([1]; 240 min post i.v. injection): 13.00 % ID/g | Organ distribution of F-18 signal, kidney ([1]; 2 min post i.v. injection): 7.68 % ID/g | Organ distribution of F-18 signal, kidney ([1]; 5 min post i.v. injection): 8.07 % ID/g | Organ distribution of F-18 signal, kidney ([1]; 30 min post i.v. injection): 7.83 % ID/g | Organ distribution of F-18 signal, kidney ([1]; 60 min post i.v. injection): 4.37 % ID/g | Organ distribution of F-18 signal, kidney ([1]; 240 min post i.v. injection): 1.12 % ID/g | Organ distribution of F-18 signal, liver ([1]; 2 min post i.v. injection): 7.17 % ID/g | Organ distribution of F-18 signal, liver ([1]; 5 min post i.v. injection): 12.14 % ID/g | Organ distribution of F-18 signal, liver ([1]; 30 min post i.v. injection): 9.41 % ID/g | Organ distribution of F-18 signal, liver ([1]; 60 min post i.v. injection): 4.72 % ID/g | Organ distribution of F-18 signal, liver ([1]; 240 min post i.v. injection): 2.09 % ID/g | Organ distribution of F-18 signal, lung ([1]; 2 min post i.v. injection): 4.14 % ID/g | Organ distribution of F-18 signal, lung ([1]; 5 min post i.v. injection): 3.76 % ID/g | Organ distribution of F-18 signal, lung ([1]; 30 min post i.v. injection): 1.65 % ID/g | Organ distribution of F-18 signal, lung ([1]; 60 min post i.v. injection): 0.69 % ID/g | Organ distribution of F-18 signal, lung ([1]; 240 min post i.v. injection): 0.31 % ID/g | Organ distribution of F-18 signal, muscle ([1]; 2 min post i.v. injection): 2.38 % ID/g | Organ distribution of F-18 signal, muscle ([1]; 5 min post i.v. injection): 2.54 % ID/g | Organ distribution of F-18 signal, muscle ([1]; 30 min post i.v. injection): 1.03 % ID/g | Organ distribution of F-18 signal, muscle ([1]; 60 min post i.v. injection): 0.38 % ID/g | Organ distribution of F-18 signal, muscle ([1]; 240 min post i.v. injection): 0.07 % ID/g | Organ distribution of F-18 signal, pancreas ([1]; 2 min post i.v. injection): 4.44 % ID/g | Organ distribution of F-18 signal, pancreas ([1]; 5 min post i.v. injection): 3.97 % ID/g | Organ distribution of F-18 signal, pancreas ([1]; 30 min post i.v. injection): 2.20 % ID/g | Organ distribution of F-18 signal, pancreas ([1]; 60 min post i.v. injection): 0.77 % ID/g | Organ distribution of F-18 signal, pancreas ([1]; 240 min post i.v. injection): 0.18 % ID/g | Organ distribution of F-18 signal, skin ([1]; 2 min post i.v. injection): 1.22 % ID/g | Organ distribution of F-18 signal, skin ([1]; 5 min post i.v. injection): 1.80 % ID/g | Organ distribution of F-18 signal, skin ([1]; 30 min post i.v. injection): 1.43 % ID/g | Organ distribution of F-18 signal, skin ([1]; 60 min post i.v. injection): 0.66 % ID/g | Organ distribution of F-18 signal, skin ([1]; 240 min post i.v. injection): 0.10 % ID/g | Organ distribution of F-18 signal, spleen ([1]; 2 min post i.v. injection): 1.47 % ID/g | Organ distribution of F-18 signal, spleen ([1]; 5 min post i.v. injection): 2.01 % ID/g | Organ distribution of F-18 signal, spleen ([1]; 30 min post i.v. injection): 0.93 % ID/g | Organ distribution of F-18 signal, spleen ([1]; 60 min post i.v. injection): 0.37 % ID/g | Organ distribution of F-18 signal, spleen ([1]; 240 min post i.v. injection): 0.09 % ID/g | Organ distribution of F-18 signal, stomach ([1]; 2 min post i.v. injection): 3.46 % ID/g | Organ distribution of F-18 signal, stomach ([1]; 5 min post i.v. injection): 3.07 % ID/g | Organ distribution of F-18 signal, stomach ([1]; 30 min post i.v. injection): 3.10 % ID/g | Organ distribution of F-18 signal, stomach ([1]; 60 min post i.v. injection): 1.13 % ID/g | Organ distribution of F-18 signal, stomach ([1]; 240 min post i.v. injection): 0.34 % ID/g | Organ distribution of F-18 signal, tail ([1]; 2 min post i.v. injection): 8.55 % ID/g | Organ distribution of F-18 signal, tail ([1]; 5 min post i.v. injection): 5.41 % ID/g | Organ distribution of F-18 signal, tail ([1]; 30 min post i.v. injection): 3.21 % ID/g | Organ distribution of F-18 signal, tail ([1]; 60 min post i.v. injection): 0.87 % ID/g | Organ distribution of F-18 signal, tail ([1]; 240 min post i.v. injection): 0.39 % ID/g | Organ distribution of F-18 signal, testicle ([1]; 2 min post i.v. injection): 1.36 % ID/g | Organ distribution of F-18 signal, testicle ([1]; 5 min post i.v. injection): 1.70 % ID/g | Organ distribution of F-18 signal, testicle ([1]; 30 min post i.v. injection): 1.13 % ID/g | Organ distribution of F-18 signal, testicle ([1]; 60 min post i.v. injection): 0.65 % ID/g | Organ distribution of F-18 signal, testicle ([1]; 240 min post i.v. injection): 0.15 % ID/g | Organ distribution of F-18 signal, thyroid ([1]; 2 min post i.v. injection): 3.11 % ID/g | Organ distribution of F-18 signal, thyroid ([1]; 5 min post i.v. injection): 2.41 % ID/g | Organ distribution of F-18 signal, thyroid ([1]; 30 min post i.v. injection): 1.08 % ID/g | Organ distribution of F-18 signal, thyroid ([1]; 60 min post i.v. injection): 0.50 % ID/g | Organ distribution of F-18 signal, thyroid ([1]; 240 min post i.v. injection): 0.19 % ID/g
